Laboratory results as given in US20120046317A1, “NOVEL HETEROCYCLIC COMPOUNDS” (priority 2009, published 2012).

Tests used:
[1] = test system: AGE-BSA Formation (Bovine Serum Albumin incubated with ribose); test: In vitro prevention of advanced glycation endproducts (AGEs) accumulation: BSA incubated with ribose, fluorescence; details: one week
Experimental: A reduction in fluorescence intensity in the presence of the test compound is an indication of its ability to prevent accumulation of advanced glycation endproducts.
Bovine Serum Albumin was incubated with ribose alone as well as with ribose and different concentrations of the following compounds under aseptic conditions for one week. At the end of the incubation period fluorescence intensity of the samples was measured at excitation and emission wavelengths of 355 nm and 460 nm respectively.

[2] = test system: AGE-LDL formation (Low density lipoprotein incubated with CuCl2); test: In vitro inhibition of AGE-LDL formation: LDL incubated with CuCl2, MDA-lysine adduct fluorescence; type: biochemical; details: LDL with CuCl2 at 37° C.
Experimental: In vitro Inhibition of AGE-LDL Formation:
Low density lipoprotein (LDL) was incubated with CuCl2 at 37° C. in phosphate buffered saline in the presence and absence of the following compounds. […] Results were expressed as % MDA-lysine adducts accumulation, considering the extent of the same formed upon incubation with CuCl2 alone as 100%.

Row | Structure (SMILES) | % Inhibition of AGE-BSA Formation ([1]; Conc. 1 mM) | % Inhibition of AGE-LDL-formation ([2]; Conc. 100 uM) | % Inhibition of AGE-BSA Formation ([1]; Conc. 100 uM) | other results
1 | CS(=O)(=O)NNC(=O)C1=CN(CC(=O)c2ccc(Cl)s2)C=CC1 [Compound no. 6, 1-[2-(5-chlorothiophen-2-yl)-2-oxoethyl]-N′-(methylsulfonyl)-1,4-dihydropyridine-3-carbohydrazide] | +++ (+++ indicate 21-30%) | – | – | % Inhibition of AGE-LDL-formation ([2]; Conc. 250 uM): ++++ (++++ indicate >30%)
2 | Cc1ccc(C(=O)CN2C=CCC(C(=O)NNS(C)(=O)=O)=C2)s1 [Compound no. 13, N′-(methylsulfonyl)-1-[2-(5-methylthiophen-2-yl)-2-oxoethyl]-1,4-dihydropyridine-3-carbohydrazide] | +++ (+++ indicate 21-30%) | – | – | % Inhibition of AGE-LDL-formation ([2]; Conc. 250 uM): ++++ (++++ indicate >30%)
3 | O=C(CN1C=CCC(C(=O)NCCOC(=O)c2ccccc2)=C1)Nc1ccccc1 [Compound no. 107, 2-[({1-[2-oxo-2-(phenylamino)ethyl]-1,4-dihydropyridin-3-yl}carbonyl)amino]ethyl benzoate] | – | + (+ indicate 0-10%) | – | –
4 | CS(=O)(=O)NNC(=O)C1=CN(CC(=O)c2ccc(Br)cc2)C=CC1 [compound 143, 1-[2-(4-bromophenyl)-2-oxoethyl]-N′-(methylsulfonyl)-1,4-dihydropyridine-3-carbohydrazide] | – | ++++ (++++ indicate >30%) | + (+ indicate 0-10%) | –
5 | COc1ccc(C(=O)CN2C=CCC(C(=O)NNS(C)(=O)=O)=C2)cc1 [compound 144, 1-[2-(4-methoxyphenyl)-2-oxoethyl]-N′-(methylsulfonyl)-1,4-dihydropyridine-3-carbohydrazide] | + (+ indicate 0-10%) | – | – | % Inhibition of AGE-LDL-formation ([2]; Conc. 250 uM): ++++ (++++ indicate >30%)
6 | Cc1ccc(S(=O)(=O)NNC(=O)C2=CN(CC(=O)Nc3ccccc3)C=CC2)cc1 [compound 145, 2-[3-({2-[(4-methylphenyl)sulfonyl]hydrazinyl}carbonyl)pyridin-1(4H)-yl]-N-phenylacetamide] | – | – | – | % Inhibition of AGE-BSA Formation ([1]; Conc. 250 uM): + (+ indicate 0-10%); % Inhibition of AGE-LDL-formation ([2]; Conc. 250 uM): + (+ indicate 0-10%)
7 | Cc1ccc(S(=O)(=O)NNC(=O)C2=CN(CC(=O)c3cccs3)C=CC2)cc1 [compound 147, N′-[(4-methylphenyl)sulfonyl]-1-[2-oxo-2-(thiophen-2-yl)ethyl]-1,4-dihydropyridine-3-carbohydrazide] | – | ++++ (++++ indicate >30%) | +++ (+++ indicate 21-30%) | –
8 | O=C(NCCO)C1=CN(CC(=O)c2ccc(Br)cc2)C=CC1 [compound 148, 1-[2-(4-bromophenyl)-2-oxoethyl]-N-(2-hydroxyethyl)-1,4-dihydropyridine-3-carboxamide] | + (+ indicate 0-10%) | – | – | –
9 | COc1ccc(C2=CN(CC(=O)c3cccs3)C=C(C(=O)NNS(C)(=O)=O)C2)cc1 [compound 151, 5-(4-methoxyphenyl)-N′-(methylsulfonyl)-1-[2-oxo-2-(thiophen-2-yl)ethyl]-1,4-dihydropyridine-3-carbohydrazide] | – | + (+ indicate 0-10%) | + (+ indicate 0-10%) | –
10 | O=C(NCCO)C1=CN(CC(=O)c2cccs2)CCC1 [compound 158, N-(2-hydroxyethyl)-1-[2-oxo-2-(thiophen-2-yl)ethyl]-1,4,5,6-tetrahydropyridine-3-carboxamide] | – | + (+ indicate 0-10%) | – | % Inhibition of AGE-BSA Formation ([1]; Conc. 250 uM): + (+ indicate 0-10%)
11 | O=C(CN1CCCC(C(=O)NNS(=O)(=O)c2ccccc2)C1)c1cccs1 (stereo not drawn) [compound 160, 1-[2-oxo-2-(thiophen-2-yl)ethyl]-N′-(phenylsulfonyl)piperidine-3-carbohydrazide] | – | + (+ indicate 0-10%) | + (+ indicate 0-10%) | –
12 | COc1ccc(C(=O)CN2CCCC(C(=O)NNS(=O)(=O)c3ccc(C)cc3)C2)cc1 (stereo not drawn) [compound 162, 1-[2-(4-methoxyphenyl)-2-oxoethyl]-N′-[(4-methylphenyl)sulfonyl]piperidine-3-carbohydrazide] | – | ++++ (++++ indicate >30%) | + (+ indicate 0-10%) | –
13 | COc1ccc(C(=O)CN2CCCC(C(=O)NNS(C)(=O)=O)C2)cc1 (stereo not drawn) [compound 163, 1-[2-(4-methoxyphenyl)-2-oxoethyl]-N′-(methylsulfonyl)piperidine-3-carbohydrazide] | – | + (+ indicate 0-10%) | – | % Inhibition of AGE-BSA Formation ([1]; Conc. 250 uM): + (+ indicate 0-10%)
14 | Cc1ccc(C(=O)CN2CCCC(C(=O)NNS(C)(=O)=O)C2)s1 (stereo not drawn) [compound 164, N′-(methylsulfonyl)-1-[2-(5-methylthiophen-2-yl)-2-oxoethyl]piperidine-3-carbohydrazide] | + (+ indicate 0-10%) | – | – | % Inhibition of AGE-LDL-formation ([2]; Conc. 250 uM): + (+ indicate 0-10%)
15 | CC(C)(C)c1ccc(S(=O)(=O)NNC(=O)C2CCCN(CC(=O)c3cccs3)C2)cc1 (stereo not drawn) [compound 165, N′-[(4-tert-butylphenyl)sulfonyl]-1-[2-oxo-2-(thiophen-2-yl)ethyl]piperidine-3-carbohydrazide] | – | + (+ indicate 0-10%) | + (+ indicate 0-10%) | –
16 | CS(=O)(=O)NNC(=O)C1=CCCN(CC(=O)c2ccc(Br)cc2)C1 [compound 167, 1-[2-(4-bromophenyl)-2-oxoethyl]-N′-(methylsulfonyl)-1,2,5,6-tetrahydropyridine-3-carbohydrazide] | + (+ indicate 0-10%) | – | – | % Inhibition of AGE-LDL-formation ([2]; Conc. 250 uM): + (+ indicate 0-10%)
17 | CS(=O)(=O)NNC(=O)C1=CN(CC(=O)c2ccc(Cl)cc2Cl)C=CC1 [compound 168, 1-[2-(2,4-dichlorophenyl)-2-oxoethyl]-N′-(methylsulfonyl)-1,4-dihydropyridine-3-carbohydrazide] | – | + (+ indicate 0-10%) | + (+ indicate 0-10%) | –
18 | O=C(NNS(=O)(=O)c1ccccc1)C1=CCCN(CC(=O)c2cccs2)C1 [compound 169, 1-[2-oxo-2-(thiophen-2-yl)ethyl]-N′-(phenylsulfonyl)-1,2,5,6-tetrahydropyridine-3-carbohydrazide] | – | + (+ indicate 0-10%) | + (+ indicate 0-10%) | –
19 | O=C(NNC(=O)C1=CCCN(CC(=O)c2cccs2)C1)Nc1ccc(Cl)cc1 [compound 171, N-(4-chlorophenyl)-2-({1-[2-oxo-2-(thiophen-2-yl)ethyl]-1,2,5,6-tetrahydropyridin-3-yl}carbonyl)hydrazinecarboxamide] | – | + (+ indicate 0-10%) | + (+ indicate 0-10%) | –
20 | COc1ccc(C(=O)CN2CCC=C(C(=O)NNS(C)(=O)=O)C2)cc1 [compound 172, 1-[2-(4-methoxyphenyl)-2-oxoethyl]-N′-(methylsulfonyl)-1,2,5,6-tetrahydropyridine-3-carbohydrazide] | – | – | – | % Inhibition of AGE-BSA Formation ([1]; Conc. 50 uM): + (+ indicate 0-10%); % Inhibition of AGE-LDL-formation ([2]; Conc. 50 uM): + (+ indicate 0-10%)
21 | CS(=O)(=O)NNC(=O)C1=CN(CC(=O)c2cccs2)CCC1 [compound 187, N′-(methylsulfonyl)-1-[2-oxo-2-(thiophen-2-yl)ethyl]-1,4,5,6-tetrahydropyridine-3-carbohydrazide] | + (+ indicate 0-10%) | – | – | –
